Measured values from patent US4105766A, “4,5-Dihydro-5-oxopyrazolo[1,5-a]quinazoline-3-carboxylic acid derivatives” (Sterling Drug Inc., priority 1977, dated 1978).

Legend:
[1] = test system: passive cutaneous anaphylaxis; assay: passive cutaneous anaphylaxis test in rats (anti-allergy); format: in vivo; conditions: for ED50 / inhibition in vivo at 100 mg/kg: Rattus norvegicus, po; for ED50 / inhibition in vivo at 100 mg/kg / R (ratio, passive cutaneous anaphylaxis) / % Inhibition (passive cutaneous anaphylaxis): rats; for ED50: passive cutaneous anaphylaxis, read-out: Average Effective Dose50 (AED50); for inhibition in vivo at 100 mg/kg / % Inhibition (passive cutaneous anaphylaxis): standard dose of 100 mg./kg. (p.o.); for R (ratio, passive cutaneous anaphylaxis): R 1.0 to 2.0 inactive, 2.0 to 4.0 weakly active, 4.0 to 8.0 moderately active, >8.0 strongly active
Excerpt: (1) The inhibition of carrageenin-induced foot edema test essentially described by Winter et al., Proc. Soc. Exp. Biol. and Med. 111, 544 (1962) as modified by Van Arman et al., J. Pharmacol. Exptl. Therap. 150, 328 (1965) and (2) a modification of the inhibition of adjuvant-induced arthritis test described by Pierson, J. Chronic Diseases 16, 863 (1963) and Glenn et al., Am. J. Vet. Res. 26, 1180 (1965), which were used to establish the anti-inflammatory activities of the compounds; and the passive cutaneous anaphylaxis test described by Mielens et al., Int. Arch. Allergy Appl. Immunol. 47, 633-649 (1974) which was used to establish the anti-allergy activity of the compounds.
Results are expressed either in terms of % Inhibition at a standard dose of 100 mg./kg. (p.o.), as an Average Effective Dose50 (AED50), or as a ratio, R, where: [formula]

[2] = test system: Trypanosoma brucei; assay: trypanosomicidal test in infected mice; format: in vivo, Trypanosoma brucei (in mice)
Protocol: Trypanosomicidal activity of the compounds of the invention was determined in a test procedure in which albino female mice (Taconic Farms) weighing 20± 2 g. were intraperitoneally injected 3 days prior to initial medication with 0.2 ml. of an inoculum containing 500 Trypanosoma brucei organisms in 0.85% sterile saline. Blood for infecting purposes was obtained via cardiac puncture of a donor mouse previously determined to have a high parasitemia. Test medications to groups of five mice were started 3 days after infection at a time when the animals had begun to develop a rising blood parasitemia. […] Groups of 10 non-medicated infected control mice and five animals medicated with the reference compound LAMPIT® (tetrahydro-3-methyl-4-[(5-nitrofurfurylidene)amino]-2H-1,4-thiazine-1,1-dioxide) were included in each screening test. The test system is based on the survival of animals medicated with the test compound, and those mice alive at the end of 28 days post-infection were recorded as cured. (Non-medicated infected control mice rarely succumb later than 5 to 6 days post-innoculation with T. brucei). A compound was considered active if at least two of five animals survived until the termination of a 28 day post-infection holding period.
(§1) Results obtained in amoebacidal and trypanosomicidal tests on the compounds of the invention against E. criceti and T. brucei, respectively, are given in the table below. Results are expressed as a ratio: Number of Animals Cleared/Total Test Animals.

[3] = test system: Entamoeba criceti; assay: amoebacidal test in naturally infected hamsters; format: in vivo, Entamoeba criceti (in hamsters)
Protocol: Anti-parasitic activity of the compounds was shown by the following test procedures. Amoebacidal activity was shown in a test in which 100 or more female hamsters (Sprague-Dawley) weighing between 90 and 130 g. were individually weighed and sorted into groups of five animals each averaging either 100 ± 10 g. or 120 ± 10g. The test compounds (at least 200 mg.) and a reference standard, N,N'-(phenylenedimethylene)-bis[α,α-dichloro-N-(2-ethoxyethyl)acetamide] (FALMONOX®), were dissolved or suspended in 10 percent gelatin. The test compounds and the reference standard were administered to the naturally infected hamsters intragastrically via syringe in equally subdivided doses of 0.5 ml. […] On the fourth day each of the test animals and the five hamsters receiving the reference drug, as well as non-medicated infected control animals, were killed and a portion of the mucus from the wall of the cecum was mixed in a drop of 0.85% sodium chloride. The preparation was examined under low power (100 ×) of a compound microscope for the presence of motile trophozoites of Entamoeba criceti, and when a preparation was determined to be free from trophozoites, a second specimen was taken from another part of the cecum of the same animal and thoroughly examined before the animal was declared cleared of amoebas. […] Results were recorded as a fraction: number of hamsters cleared/number of hamsters treated.
as §1

[4] = test system: carrageenin-induced foot edema; assay: carrageenin-edema test (CE), inhibition of carrageenin-induced foot edema in rats; format: in vivo; conditions: Rattus norvegicus, read-out: % Inhibition C.E.; for inhibition in vivo at 80 µmol/kg: dose .08 mmole/kg.; for inhibition in vivo at 324 µmol/kg: dose .324 mmole/kg.
Protocol: (1) The inhibition of carrageenin-induced foot edema test essentially described by Winter et al., Proc. Soc. […] Therap. […] J. Vet. […] Arch. Allergy Appl. Immunol.
Here, and elsewhere in other tables which follow, compounds are identified by the Example number above where their preparations are recorded. For purposes of comparison, data are also given for the reference compound 4,5-dihydro-5-oxopyrazolo[1,5-a]quinazoline-3-carboxylic acid disclosed by Wright, ibid., identified here and elsewhere in the tables which follow as "Ref.".

[5] = test system: adjuvant-induced arthritis; assay: adjuvant arthritis test (AA), inhibition of adjuvant-induced arthritis in rats; format: in vivo; conditions: Rattus norvegicus; for inhibition in vivo at 324 µmol/kg: dose .324 mmole/kg.; for inhibition in vivo at 20 µmol/kg: dose .02 mmole/kg.; for inhibition in vivo at 80 µmol/kg: dose .08 mmole/kg.
[6] = dose 200 mg./kg. p.o. 2×/day × 4

## O=C(O)c1cnn2c1[nH]c(=O)c1cc(Cl)ccc12 [Example 7J]
[1]
  ED50: 5 to 10 mg/kg
  inhibition in vivo at 100 mg/kg: 92%

## Cc1ccc2c(c1)c(=O)n(C)c1c(C(=O)O)cnn21 [Example 7H]
[1]
  ED50: 34 mg/kg
  inhibition in vivo at 100 mg/kg: 73%
[2]; [6]
  No. Cleared/No. Tested, Tryp.: 10/10
[2]; dose 200 mg./kg. p.o., i.p.
  No. Cleared/No. Tested, Tryp.: 4/5

## CCOC(=O)c1cnn2c3ccc(Cl)cc3c(=O)n(C)c12 [Example 2H]
[1]
  inhibition in vivo at 100 mg/kg: 32%
[3]; dose 100 mg./kg.
  No. Cleared/No. Tested, Amoeba: 2/4

## O=C(O)c1cnn2c3ccccc3c(=O)n(CC3CC3)c12 [Example 7C]
[4]
  inhibition in vivo at 80 µmol/kg: 25%
  inhibition in vivo at 324 µmol/kg: 33%
[5]
  inhibition in vivo at 324 µmol/kg: 74%
[1]
  R (ratio, passive cutaneous anaphylaxis): 6.5

## CCOC(=O)c1cnn2c3ccc(F)cc3c(=O)n(C)c12 [Example 2K]
[1]
  R (ratio, passive cutaneous anaphylaxis): 3.0

## CCOC(=O)c1cnn2c3cc(C)ccc3c(=O)n(C)c12 [Example 2G]
[1]
  inhibition in vivo at 100 mg/kg: 46%

## Cn1c(=O)c2cc(N)ccc2n2ncc(C(=O)O)c12 [Example 10, 7-amino-4-methyl-4,5-dihydro-5-oxopyrazolo[1,5-a]quinazoline-3-carboxylic acid]
[3]; dose 50 mg./kg.
  No. Cleared/No. Tested, Amoeba: 0/5
[3]; dose 100 mg./kg.
  No. Cleared/No. Tested, Amoeba: 5/5

## Cn1c(=O)c2ccccc2n2ncc(C(=O)OCOC(=O)C(C)(C)C)c12 [Example 9, pivaloyloxymethyl 4-methyl-4,5-dihydro-5-oxopyrazolo[1,5-a]quinazoline-3-carboxylate]
[1]
  R (ratio, passive cutaneous anaphylaxis): 6.7

## CCOC(=O)c1cnn2c1[nH]c(=O)c1cc(Cl)ccc12 [Example 1C]
[1]
  inhibition in vivo at 100 mg/kg: 48%

## CCOC(=O)c1cnn2c3ccc(C)cc3c(=O)n(C)c12 [Example 2F]
[1]
  inhibition in vivo at 100 mg/kg: 6%
  % Inhibition (passive cutaneous anaphylaxis): Inac.
[3]; dose 25 mg./kg.
  No. Cleared/No. Tested, Amoeba: 0/5
[3]; dose 100 mg./kg.
  No. Cleared/No. Tested, Amoeba: 5/5

## CC(C)=CCn1c(=O)c2ccccc2n2ncc(C(=O)O)c12 [Example 7E]
[4]
  inhibition in vivo at 80 µmol/kg: 3%
  inhibition in vivo at 324 µmol/kg: 4%
[5]
  inhibition in vivo at 324 µmol/kg: 34%
[1]
  R (ratio, passive cutaneous anaphylaxis): 3.8

## C=CCn1c(=O)c2ccccc2n2ncc(C(=O)O)c12 [Example 7B, 4-(2-propenyl)-4,5-dihydro-5-oxopyrazolo[1,5-a]quinazoline-3-carboxylic acid]
[4]
  inhibition in vivo at 80 µmol/kg: 38%
  inhibition in vivo at 324 µmol/kg: 73%
[5]
  inhibition in vivo at 20 µmol/kg: 18%
  inhibition in vivo at 80 µmol/kg: 34%
  inhibition in vivo at 324 µmol/kg: 84%
[1]
  inhibition in vivo at 100 mg/kg: 40%

## Cn1c(=O)c2cc(Br)ccc2n2ncc(C(=O)O)c12 [Example 7R]
[1]
  inhibition in vivo at 100 mg/kg: 63%

## Cn1c(=O)c2cc(Cl)ccc2n2ncc(C(=O)O)c12 [Example 7K]
[1]
  ED50: 9 mg/kg
[2]; dose 200 mg./kg. p.o., i.p.
  No. Cleared/No. Tested, Tryp.: 2/4

## CCOC(=O)c1cnn2c3ccccc3c(=O)n(C)c12 [Example 2, ethyl 4-methyl-4,5-dihydro-5-oxopyrazolo[1,5-a]quinazoline-3-carboxylate]
[2]; dose 50 mg./kg. p.o., i.p.
  No. Cleared/No. Tested, Tryp.: 0/5
[2]; dose 200 mg./kg. p.o., i.p.
  No. Cleared/No. Tested, Tryp.: 2/5

## Cc1ccc2c(c1)c(=O)[nH]c1c(C(=O)O)cnn12 [Example 7F]
[1]
  inhibition in vivo at 100 mg/kg: 65%

## O=C(O)c1cnn2c1[nH]c(=O)c1ccccc12 [Ref., 4,5-dihydro-5-oxopyrazolo[1,5-a]quinazoline-3-carboxylic acid]
[4]
  inhibition in vivo at 80 µmol/kg: 0%
  inhibition in vivo at 324 µmol/kg: 7%
[5]
  inhibition in vivo at 20 µmol/kg: 26%
  inhibition in vivo at 80 µmol/kg: 31%
  inhibition in vivo at 324 µmol/kg: 10%
[1]
  ED50: 2 to 15 mg/kg
  inhibition in vivo at 100 mg/kg: 62%
[1]; rat, in vivo
  anti-allergic activity (in words): possesses anti-allergic activity

## CCOC(=O)c1cnn2c1[nH]c(=O)c1cc(C)ccc12 [Example 1A]
[1]
  inhibition in vivo at 100 mg/kg: 63%

## Cn1c(=O)c2ccccc2n2ncc(C(=O)O)c12 [Example 7, 4-methyl-4,5-dihydro-5-oxopyrazolo[1,5-a]quinazoline-3-carboxylic acid]
[4]
  inhibition in vivo at 324 µmol/kg: 11%
[5]
  inhibition in vivo at 80 µmol/kg: 16%
  inhibition in vivo at 324 µmol/kg: 39%
[1]
  inhibition in vivo at 100 mg/kg: 68%
[2]; dose 100 mg./kg. p.o. 2×/day × 4
  No. Cleared/No. Tested, Tryp.: 0/5
[2]; [6]
  No. Cleared/No. Tested, Tryp.: 5/5

## Cn1c(=O)c2cc(F)ccc2n2ncc(C(=O)O)c12 [Example 7P]
[4]
  inhibition in vivo at 324 µmol/kg: 0%
[1]
  % Inhibition (passive cutaneous anaphylaxis): Inac.
[3]; dose not given
  Amoeba (activity in words): Inac. (inactive when zero or one of the five hamsters were trophozoite free)
[2]; dose 200 mg./kg. p.o., i.p.
  No. Cleared/No. Tested, Tryp.: 3/5

## C=CCn1c(=O)c2cc(F)ccc2n2ncc(C(=O)O)c12 [Example 7Q]
[4]
  inhibition in vivo at 80 µmol/kg: 0%
  inhibition in vivo at 324 µmol/kg: 4%
[5]
  inhibition in vivo at 324 µmol/kg: 72%

## C=C(C)Cn1c(=O)c2ccccc2n2ncc(C(=O)O)c12 [Example 7D]
[4]
  inhibition in vivo at 80 µmol/kg: 15%
  inhibition in vivo at 324 µmol/kg: 24%
[5]
  inhibition in vivo at 324 µmol/kg: 43%
[1]
  R (ratio, passive cutaneous anaphylaxis): 4.6

## Cn1c(=O)c2cc([N+](=O)[O-])ccc2n2ncc(C(=O)O)c12 [Example 7S]
[1]
  ED50: 37 mg/kg

## CCn1c(=O)c2ccccc2n2ncc(C(=O)O)c12 [Example 7A]
[4]
  inhibition in vivo at 324 µmol/kg: 33%
[5]
  inhibition in vivo at 80 µmol/kg: 27%
[1]
  ED50: 12 mg/kg
  inhibition in vivo at 100 mg/kg: 81%

## CCOC(=O)c1cnn2c3ccc([N+](=O)[O-])cc3c(=O)n(C)c12 [Example 4, ethyl 4-methyl-7-nitro-4,5-dihydro-5-oxopyrazolo[1,5-a]quinazoline-3-carboxylate]
[3]; dose 100 mg./kg.
  No. Cleared/No. Tested, Amoeba: 2/4

## O=C(O)c1cnn2c1[nH]c(=O)c1ccc(Cl)cc12 [Example 7L]
[1]
  inhibition in vivo at 100 mg/kg: 74%
[3]; dose 100 mg./kg.
  No. Cleared/No. Tested, Amoeba: 2/5

## Cc1ccc2c(=O)[nH]c3c(C(=O)O)cnn3c2c1 [Example 7G]
[1]
  ED50: ~15 mg/kg

## Cn1c(=O)c2cc(NC(=S)Nc3ccccc3)ccc2n2ncc(C(=O)O)c12 [Example 7T]
[3]; dose 50 mg./kg.
  No. Cleared/No. Tested, Amoeba: 0/3
[3]; dose 100 mg./kg.
  No. Cleared/No. Tested, Amoeba: 3/3
[2]; dose not given
  Tryp. (activity in words): Inac. (inactive if none of the animals survived to the end of the test)

## C=CCn1c(=O)c2ccccc2n2ncc(C(=O)O)c12 [Example 8, sodium 4-(2-propenyl)-4,5-dihydro-5-oxopyrazolo[1,5-a]quinazoline-3-carboxylate]
[4]; dose .09 mmole/kg.
  inhibition in vivo at 90 µmol/kg: 20%
[4]; dose .36 mmole/kg.
  inhibition in vivo at 360 µmol/kg: 31%
[5]
  inhibition in vivo at 20 µmol/kg: 29%
  inhibition in vivo at 80 µmol/kg: 47%
  inhibition in vivo at 324 µmol/kg: 80%

## CCOC(=O)c1cnn2c1[nH]c(=O)c1ccc(C)cc12 [Example 1B]
[1]
  % Inhibition (passive cutaneous anaphylaxis): Inac.

## CCOC(=O)c1cnn2c1[nH]c(=O)c1cc(F)ccc12 [Example 1E]
[1]
  % Inhibition (passive cutaneous anaphylaxis): Inac.

## Cn1c(=O)c2ccc(Cl)cc2n2ncc(C(=O)O)c12 [Example 7M]
[1]
  inhibition in vivo at 100 mg/kg: 56%
[2]; dose 200 mg./kg. p.o., i.p.
  No. Cleared/No. Tested, Tryp.: 5/5
